Experimental data published in patent publication US12139520B2 (priority 2020, dated 2024).
Bridge positions count the residues as written; N and C are the ends. Square brackets hold non-standard residues; d marks the D form. Peptide text beside a SMILES is read from it. Hyp = O=C(O)[C@@H]1C[C@@H](O)CN1; Cit = NC(=O)NCCC[C@H](N)C(=O)O

Tests used:
hAMY3 receptor = biological target: T1, hAMY3 receptor (Homo sapiens, UniProt O60896+P30988); assay: cAMP assay for in vitro receptor activation, hAMY3-R; assay type: cell-based; conditions: cAMP assay, hAMY3 receptor; read-out: hAMY3R EC50
T1 sequence (P30988 25-474): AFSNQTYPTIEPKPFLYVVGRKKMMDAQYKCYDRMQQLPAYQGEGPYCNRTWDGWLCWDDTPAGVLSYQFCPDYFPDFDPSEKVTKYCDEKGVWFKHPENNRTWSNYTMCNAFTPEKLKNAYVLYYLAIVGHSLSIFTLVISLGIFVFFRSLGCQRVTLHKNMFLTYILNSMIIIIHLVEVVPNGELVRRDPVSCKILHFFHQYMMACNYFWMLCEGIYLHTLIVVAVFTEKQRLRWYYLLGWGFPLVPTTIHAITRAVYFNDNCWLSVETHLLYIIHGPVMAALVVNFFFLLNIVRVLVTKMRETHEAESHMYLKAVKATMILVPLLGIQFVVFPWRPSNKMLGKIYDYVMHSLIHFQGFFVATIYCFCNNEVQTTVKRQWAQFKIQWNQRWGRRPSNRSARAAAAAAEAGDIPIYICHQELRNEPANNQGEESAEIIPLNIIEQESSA
T1 sequence (O60896 24-148 partner): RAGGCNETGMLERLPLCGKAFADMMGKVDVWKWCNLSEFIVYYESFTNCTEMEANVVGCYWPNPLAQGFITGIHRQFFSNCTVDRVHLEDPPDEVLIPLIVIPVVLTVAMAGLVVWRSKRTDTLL
Procedure, shortened: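 Accumulated cAMP was detected by time-resolved FRET one hour after reagent addition. Beforehand, hAMY3-R-overexpressing monoclonal cells (2000/well, DPBS, 0.05% casein, 0.5 mM IBMX) received graded doses of compound for 30 min at room temperature; human amylin served as positive control.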

hAM1 receptor = hAM1 receptor (Homo sapiens, UniProt O60895+Q16602); assay: cAMP assay for in vitro receptor activation, hAM1-R; assay type: cell-based; conditions: cAMP assay, hAM1 receptor; read-out: hAM1R EC50
Sequence of hAM1 receptor (Q16602 23-461): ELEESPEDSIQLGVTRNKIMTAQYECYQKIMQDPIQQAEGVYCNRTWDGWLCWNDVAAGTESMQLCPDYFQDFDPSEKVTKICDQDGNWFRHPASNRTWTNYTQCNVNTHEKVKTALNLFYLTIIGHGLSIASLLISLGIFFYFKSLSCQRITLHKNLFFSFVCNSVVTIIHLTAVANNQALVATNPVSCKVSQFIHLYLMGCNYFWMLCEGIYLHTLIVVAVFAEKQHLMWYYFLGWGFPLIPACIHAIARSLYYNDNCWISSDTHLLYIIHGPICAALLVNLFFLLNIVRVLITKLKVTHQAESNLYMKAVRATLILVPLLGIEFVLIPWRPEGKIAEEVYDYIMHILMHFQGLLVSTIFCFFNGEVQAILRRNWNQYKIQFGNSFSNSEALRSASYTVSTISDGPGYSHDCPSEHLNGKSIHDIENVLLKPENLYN
Sequence of hAM1 receptor (O60895 43-175 partner): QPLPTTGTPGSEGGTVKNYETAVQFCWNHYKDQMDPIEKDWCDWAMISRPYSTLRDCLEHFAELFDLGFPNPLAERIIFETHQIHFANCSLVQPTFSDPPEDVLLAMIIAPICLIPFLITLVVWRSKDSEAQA
Procedure, shortened: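 A subcloned monoclonal line stably expressing hAM1 receptor is thawed and plated at 8000 cells/well. The assay buffer is DPBS with 0.05% casein and 0.5 mM IBMX, and receptor activation is followed by cAMP levels.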

[1] = Physical stability of peptide analogues (Thioflavin T fibrillation); assay type: physicochemical; conditions: maximum ThT signal normalized between hAMY maximum and buffer background; 40° C., shaking, four days; pH 7 per table title
Procedure, shortened: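 Samples are stressed at 40 °C for four days, being shaken at 700 rpm before each 10-min fluorescence reading of 4 μM Thioflavin T. Buffers were pH 4 acetate or pH 7 phosphate. Reported values are smoothed maximum ThT signals as a percentage of the hAMY-to-background range.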

Row | Compound | EC50 (hAMY3 receptor) [nM] | EC50 (hAM1 receptor) [nM] | Max ThT signal (%) [1] [%]
1 | CC[C@H](C)[C@H](NC(=O)[C@H](CCC(N)=O)NC(=O)[C@H](Cc1c[nH]cn1)NC(=O)[C@H](C)NC(=O)[C@H](CC(C)C)NC(=O)[C@H](CCCNC(N)=O)NC(=O)[C@H](CCC(N)=O)NC(=O)[C@@H](NC(=O)[C@@H](NC(=O)[C@@H]1CSSC[C@H](NC(=O)CN)C(=O)N[C@@H](CCCNC(=N)N)C(=O)N[C@@H](Cc2ccccc2)C(=O)NCC(=O)N[C@@H]([C@@H](C)O)C(=O)N1)[C@@H](C)O)C(C)C)C(=O)N[C@@H](Cc1ccc(O)cc1)C(=O)N[C@@H](CCC(N)=O)C(=O)N[C@@H](Cc1ccccc1)C(=O)N[C@H](C(=O)N[C@@H](CC(=O)O)C(=O)N[C@@H](CCCCN)C(=O)N[C@@H](CC(=O)O)C(=O)N[C@@H](CCCCN)C(=O)N[C@@H](CC(=O)O)C(=O)N[C@@H](CC(N)=O)C(=O)N[C@H](C(=O)N[C@@H](C)C(=O)N1CCC[C@H]1C(=O)N[C@@H](CCCNC(=N)N)C(=O)N[C@@H](CO)C(=O)N[C@@H](CC(N)=O)C(=O)N[C@H](C(=O)N[C@@H](CO)C(=O)N1CCC[C@H]1C(=O)N[C@@H](CCC(N)=O)C(=O)NCC(=O)N1C[C@H](O)C[C@H]1C(N)=O)C(C)C)C(C)C)[C@@H](C)O [compound 293] (H-GCRFGTCTVQ[Cit]LAHQIYQFTDKDKDNVAPRSNVSPQG[Hyp]-NH2; disulfide 2-7; N-terminus assumed) | 0.063 | > 5000 | 24.200
2 | CC[C@H](C)[C@H](NC(=O)[C@H](CCC(N)=O)NC(=O)[C@H](Cc1c[nH]cn1)NC(=O)[C@H](C)NC(=O)[C@H](CC(C)C)NC(=O)[C@H](Cc1c[nH]c2ccccc12)NC(=O)[C@H](CCC(N)=O)NC(=O)[C@@H](NC(=O)[C@@H](NC(=O)[C@@H]1CSSC[C@H](NC(=O)[C@@H](N)CCCCN)C(=O)N[C@@H](CC(N)=O)C(=O)N[C@@H]([C@@H](C)O)C(=O)N[C@@H](C)C(=O)N[C@@H]([C@@H](C)O)C(=O)N1)[C@@H](C)O)C(C)C)C(=O)N[C@@H](Cc1ccc(O)cc1)C(=O)N[C@@H](CCC(N)=O)C(=O)N[C@@H](Cc1ccccc1)C(=O)N[C@H](C(=O)N[C@@H](CC(=O)O)C(=O)N[C@@H](CCCCN)C(=O)N[C@@H](CC(=O)O)C(=O)N[C@@H](CCCCN)C(=O)N[C@@H](C)C(=O)N[C@@H](CC(N)=O)C(=O)N[C@H](C(=O)N[C@@H](C)C(=O)N1CCC[C@H]1C(=O)N1CCC[C@H]1C(=O)N[C@H](C(=O)N[C@@H](CC(N)=O)C(=O)N[C@H](C(=O)NCC(=O)N[C@@H](CO)C(=O)N[C@@H](CC(N)=O)C(=O)NCC(=O)N1C[C@H](O)C[C@H]1C(N)=O)C(C)C)[C@@H](C)O)C(C)C)[C@@H](C)O [compound 314] (H-KCNTATCTVQWLAHQIYQFTDKDKANVAPPTNVGSNG[Hyp]-NH2; disulfide 2-7; N-terminus assumed) | 0.008 | > 5000 | 11.900
3 | CC[C@H](C)[C@H](NC(=O)[C@H](CCC(N)=O)NC(=O)[C@H](Cc1c[nH]cn1)NC(=O)[C@H](C)NC(=O)[C@H](CC(C)C)NC(=O)[C@H](Cc1c[nH]c2ccccc12)NC(=O)[C@H](CCC(N)=O)NC(=O)[C@@H](NC(=O)[C@@H](NC(=O)[C@@H]1CSSC[C@H](NC(=O)[C@@H](N)CCCCN)C(=O)N[C@@H](CC(N)=O)C(=O)N[C@@H]([C@@H](C)O)C(=O)N[C@@H](C)C(=O)N[C@@H]([C@@H](C)O)C(=O)N1)[C@@H](C)O)C(C)C)C(=O)N[C@@H](Cc1ccc(O)cc1)C(=O)N[C@@H](CCC(N)=O)C(=O)N[C@@H](Cc1ccccc1)C(=O)N[C@H](C(=O)N[C@@H](CC(=O)O)C(=O)N[C@@H](CCCCN)C(=O)N[C@@H](CC(=O)O)C(=O)N[C@@H](CCCCN)C(=O)N[C@@H](CC(=O)O)C(=O)N[C@@H](CC(N)=O)C(=O)N[C@@H](C)C(=O)N[C@@H](C)C(=O)N1CCC[C@H]1C(=O)N1CCC[C@H]1C(=O)N[C@H](C(=O)N[C@@H](CC(N)=O)C(=O)N[C@H](C(=O)NCC(=O)N[C@@H](CO)C(=O)N[C@@H](CC(N)=O)C(=O)NCC(=O)N1C[C@H](O)C[C@H]1C(N)=O)C(C)C)[C@@H](C)O)[C@@H](C)O [compound 315] (H-KCNTATCTVQWLAHQIYQFTDKDKDNAAPPTNVGSNG[Hyp]-NH2; disulfide 2-7; N-terminus assumed) | 0.012 | > 5000 | 17.150
4 | CC[C@H](C)[C@H](NC(=O)[C@H](CC(N)=O)NC(=O)[C@@H](NC(=O)[C@H](CCCNC(=N)N)NC(=O)[C@@H]1CCCN1C(=O)[C@H](C)NC(=O)[C@@H](NC(=O)[C@H](CC(N)=O)NC(=O)[C@H](CC(=O)O)NC(=O)[C@H](CCCCN)NC(=O)[C@H](CC(=O)O)NC(=O)[C@H](CCCCN)NC(=O)[C@H](CC(=O)O)NC(=O)[C@@H](NC(=O)[C@H](Cc1ccccc1)NC(=O)[C@H](CCC(N)=O)NC(=O)[C@H](Cc1ccc(O)cc1)NC(=O)[C@@H](NC(=O)[C@H](CCC(N)=O)NC(=O)[C@H](Cc1c[nH]cn1)NC(=O)[C@H](C)NC(=O)[C@H](CC(C)C)NC(=O)[C@H](CCCNC(N)=O)NC(=O)[C@H](CCC(N)=O)NC(=O)[C@@H](NC(=O)[C@@H](NC(=O)[C@@H]1CSSC[C@H](NC(=O)CN)C(=O)N[C@@H](CCCNC(=N)N)C(=O)N[C@@H]([C@@H](C)O)C(=O)NCC(=O)N[C@@H]([C@@H](C)O)C(=O)N1)[C@@H](C)O)C(C)C)[C@@H](C)CC)[C@@H](C)O)C(C)C)[C@@H](C)O)C(=O)NCC(=O)N1CCC[C@H]1C(=O)N[C@@H](CCC(N)=O)C(=O)NCC(=O)N1C[C@H](O)C[C@H]1C(N)=O [compound 280] (H-GCRTGTCTVQ[Cit]LAHQIYQFTDKDKDNVAPRTNIGPQG[Hyp]-NH2; disulfide 2-7; N-terminus assumed) | 0.024 | > 5000 | 26.450
5 | CC[C@H](C)[C@H](NC(=O)[C@H](CCC(N)=O)NC(=O)[C@H](CCC(=O)O)NC(=O)[C@H](C)NC(=O)[C@H](CC(C)C)NC(=O)[C@H](CCCNC(N)=O)NC(=O)[C@H](C)NC(=O)[C@@H](NC(=O)[C@@H](NC(=O)[C@@H]1CSSC[C@H](NC(=O)[C@@H](N)CCCNC(=N)N)C(=O)N[C@@H](CCC(N)=O)C(=O)N[C@@H]([C@@H](C)O)C(=O)N[C@@H](CO)C(=O)N[C@@H]([C@@H](C)O)C(=O)N1)[C@@H](C)O)C(C)C)C(=O)N[C@@H](C)C(=O)N[C@@H](CCC(N)=O)C(=O)N[C@@H](Cc1ccc(O)cc1)C(=O)N[C@H](C(=O)N[C@@H](CC(=O)O)C(=O)N[C@@H](CCCCN)C(=O)N[C@@H](CC(=O)O)C(=O)N[C@@H](CCCCN)C(=O)N[C@@H](CC(=O)O)C(=O)N[C@@H](CCC(N)=O)C(=O)N[C@H](C(=O)N[C@@H](C)C(=O)N1CCC[C@H]1C(=O)N1CCC[C@H]1C(=O)N[C@H](C(=O)N[C@@H](CC(N)=O)C(=O)N[C@H](C(=O)NCC(=O)N[C@@H](CO)C(=O)N[C@@H](CC(N)=O)C(=O)N[C@@H](CO)C(=O)N1C[C@H](O)C[C@H]1C(N)=O)C(C)C)[C@@H](C)O)C(C)C)[C@@H](C)O [compound 256] (H-RCQTSTCTVA[Cit]LAEQIAQYTDKDKDQVAPPTNVGSNS[Hyp]-NH2; disulfide 2-7; N-terminus assumed) | 0.007 | > 5000 | 18.650
